pIC50: −log10 of the molar value.

The first assay concerns Leishmania major. The experiment in a line: Antileishmanial activity against Leishmania major promastigotes after 72 hrs by Neubauer counting chamber based microscopy. In kind it is functional, organism-based.
Settings: not given; call rule not given here
With `O=[N+]([O-])c1ccc2ncnc(Nc3ccc(Cl)c(Cl)c3)c2c1`, the IC50 entry is recorded as “Not Active”.

Take `O=[N+]([O-])c1ccc2ncnc(Nc3ccc(Cl)cc3)c2c1`: the IC50 entry was “Not Active”. Same read-out and setting: as for `O=[N+]([O-])c1ccc2ncnc(Nc3ccc(F)cc3)c2c1`, the entry is “Not Active”. On the same count and under the same terms, as for `COc1ccc(Nc2ncnc3ccc([N+](=O)[O-])cc23)cc1`, the entry is “Not Active”; as for `COc1cccc(Nc2ncnc3ccc([N+](=O)[O-])cc23)c1`, “Not Active”; as for `O=[N+]([O-])c1ccc2ncnc(Nc3cc(Cl)ccc3Cl)c2c1`, “Not Active”. The same measure, in the same setting: as for `O=[N+]([O-])c1ccc2ncnc(Nc3ccccc3)c2c1`, the entry is “Not Active”; as for `O=[N+]([O-])c1ccc2ncnc(Nc3ccc(I)cc3)c2c1`, “Not Active”; as for `O=[N+]([O-])c1ccc2ncnc(Nc3ccc(Cl)cc3Cl)c2c1`, “Not Active”. With `Cc1ccc(C)c(Nc2ncnc3ccc([N+](=O)[O-])cc23)c1`, the IC50 result is recorded as “Not Active”.

As to `O=[N+]([O-])c1ccc2ncnc(Nc3cccc(O)c3)c2c1`, the IC50 result was “Not Active”. On to `COc1cc(OC)c(Nc2ncnc3ccc([N+](=O)[O-])cc23)cc1Cl`, for which the IC50 result is on record as “Not Active”. The same measure, in the same setting: as for `O=[N+]([O-])c1ccc2ncnc(Nc3cccc(Cl)c3)c2c1`, the entry is “Not Active”.

Staying with this assay, now noted: Leishmania major, 72 h; read-out: IC50.
As to `Cc1ccc(Nc2ncnc3ccc([N+](=O)[O-])cc23)cc1C`, the pIC50 was 4.45. As for `CSc1cccc(Nc2ncnc3ccc([N+](=O)[O-])cc23)c1`, the pIC50 is 4.70. The same measure, in the same setting: as for `COc1ccc(OC)c(Nc2ncnc3ccc([N+](=O)[O-])cc23)c1`, the figure is 4.91; as for `O=[N+]([O-])c1ccc2ncnc(Nc3ccc(Br)cc3)c2c1`, 4.21; as for `O=[N+]([O-])c1ccc2ncnc(Nc3cccc(Br)c3)c2c1`, 5.04. `CSc1ccc(Nc2ncnc3ccc([N+](=O)[O-])cc23)cc1`: the pIC50 is 5.73. Same read-out and setting: as for `CCc1ccc(Nc2ncnc3ccc([N+](=O)[O-])cc23)cc1`, the figure is 4.42; as for `Cc1ccc(Cl)cc1Nc1ncnc2ccc([N+](=O)[O-])cc12`, 4.35; as for `COc1ccccc1Nc1ncnc2ccc([N+](=O)[O-])cc12`, 5.36.

As to `O=[N+]([O-])c1ccc2ncnc(Nc3ccccc3Cl)c2c1`, the pIC50 was 5.19. As to `Cc1ccc(Nc2ncnc3ccc([N+](=O)[O-])cc23)cc1`, the pIC50 was 4.62.

The next assay has as its system Leishmania major. The experiment in a line: Potency index, ratio IC50 of pentamidine to IC50 of compound for antilieshmanial activity against Leishmania major promastigotes. The assay is classed as functional.
Settings: not given
As to `CSc1ccc(Nc2ncnc3ccc([N+](=O)[O-])cc23)cc1`, the “Ratio IC50” value amounted to 3.
